Measurements as given in ChEMBL document CHEMBL1201862, “PubChem BioAssay data set” (2004).
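Growth conditions: 96-well plates. Treatment: test compound, 48 hours, 5 concentrations. Analysis: linear interpolation between bracketing concentrations; unreached endpoints set to highest concentration. The concentration for 50% growth inhibition is given as GI50.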 The source made the active and inactive calls. Rule as the data show it: active = GI50 up to about 1.1 µM and inactive = higher.

Experiments:
Experiment in all cases: NCI-60 cell line screen, 48 h
HCC 2998 = system: HCC 2998
COLO 205 = system: COLO 205
SN12C = system: SN12C
NCI/ADR-RES = system: NCI/ADR-RES
SR = system: SR
ACHN = system: ACHN
NCI-H460 = system: NCI-H460
SNB-75 = system: SNB-75
OVCAR-5 = system: OVCAR-5
SNB-19 = system: SNB-19
RPMI-8226 = system: RPMI-8226
HOP-62 = system: HOP-62
TK-10 = system: TK-10
UACC-257 = system: UACC-257
T47D = system: T47D
SK-MEL-5 = system: SK-MEL-5
UO-31 = system: UO-31
SF-268 = system: SF-268
HCT-116 = system: HCT-116
RXF 393 = system: RXF 393

SMILES	GI50 (HCC 2998)	GI50 (COLO 205)	GI50 (SN12C)	GI50 (NCI/ADR-RES)	GI50 (SR)	GI50 (ACHN)	GI50 (NCI-H460)	GI50 (SNB-75)	GI50 (OVCAR-5)	GI50 (SNB-19)	GI50 (RPMI-8226)	GI50 (HOP-62)	GI50 (TK-10)	GI50 (UACC-257)	GI50 (T47D)	GI50 (SK-MEL-5)	GI50 (UO-31)	GI50 (SF-268)	GI50 (HCT-116)	GI50 (RXF 393)
O=C1NC(=S)NC(=O)C1=Cc1cccc2cc3ccccc3cc12	2.04 µM (inactive)	1.88 µM (inactive)	2.32 µM (inactive)	2.22 µM (inactive)	1.44 µM (inactive)	1.95 µM (inactive)	2.12 µM (inactive)	1.59 µM (inactive)	2.3 µM (inactive)	2.28 µM (inactive)	1.24 µM (inactive)	1.84 µM (inactive)	1.89 µM (inactive)	1.78 µM (inactive)	0.9 µM (active)	2.07 µM (inactive)	1.95 µM (inactive)	2.06 µM (inactive)	1.95 µM (inactive)	1.66 µM (inactive)
CC12C=CC(=O)C=C1CCC1C3CCC(O)(C(=O)CO)C3(C)CC(O)C12F (stereo not given)	> 100 µM (inactive)	> 100 µM (inactive)	> 100 µM (inactive)	> 100 µM (inactive)	> 100 µM (inactive)	> 100 µM (inactive)	> 100 µM (inactive)	> 100 µM (inactive)	> 76.4 µM (inactive)	> 100 µM (inactive)	17.1 µM (inactive)	> 100 µM (inactive)	> 100 µM (inactive)	> 100 µM (inactive)	> 100 µM (inactive)	> 100 µM (inactive)	> 100 µM (inactive)	> 100 µM (inactive)	> 100 µM (inactive)	> 100 µM (inactive)
O=C1C2CCCCC2C(=O)N1n1c(Cc2ccc(Cl)cc2)n[nH]c1=O (stereo not given)	> 100 µM (inactive)	> 100 µM (inactive)	> 100 µM (inactive)	> 100 µM (inactive)	> 100 µM (inactive)	> 100 µM (inactive)	> 100 µM (inactive)	> 100 µM (inactive)	> 100 µM (inactive)	> 100 µM (inactive)	> 100 µM (inactive)	> 100 µM (inactive)	> 100 µM (inactive)	> 100 µM (inactive)	> 100 µM (inactive)	> 100 µM (inactive)	> 100 µM (inactive)	> 100 µM (inactive)	> 100 µM (inactive)	> 100 µM (inactive)
Fc1cccc(F)c1C1SCc2nc3cc(Cl)c(Cl)cc3n21 (stereo not given)	> 100 µM (inactive)	> 100 µM (inactive)	> 100 µM (inactive)	> 100 µM (inactive)	> 100 µM (inactive)	> 100 µM (inactive)	> 100 µM (inactive)	95.7 µM (inactive)	> 100 µM (inactive)	> 100 µM (inactive)	> 100 µM (inactive)	> 100 µM (inactive)	> 100 µM (inactive)	> 100 µM (inactive)	> 100 µM (inactive)	> 100 µM (inactive)	> 100 µM (inactive)	> 100 µM (inactive)	> 100 µM (inactive)	> 100 µM (inactive)
CCN(CC)C(=O)Cn1c(C)cc2ccccc21	> 100 µM (inactive)	> 100 µM (inactive)	> 100 µM (inactive)	> 100 µM (inactive)	> 100 µM (inactive)	> 100 µM (inactive)	> 100 µM (inactive)	> 100 µM (inactive)	> 100 µM (inactive)	> 100 µM (inactive)	> 100 µM (inactive)	> 100 µM (inactive)	> 100 µM (inactive)	> 100 µM (inactive)	> 100 µM (inactive)	> 100 µM (inactive)	> 100 µM (inactive)	> 100 µM (inactive)	> 100 µM (inactive)	> 100 µM (inactive)
Cn1c(=O)nc2n(CCO)ccnc-2c1=O	> 100 µM (inactive)	> 100 µM (inactive)	> 100 µM (inactive)	> 100 µM (inactive)	> 100 µM (inactive)	> 100 µM (inactive)	> 100 µM (inactive)	> 100 µM (inactive)	> 100 µM (inactive)	> 100 µM (inactive)	> 100 µM (inactive)	> 100 µM (inactive)	> 100 µM (inactive)	> 100 µM (inactive)	> 100 µM (inactive)	> 100 µM (inactive)	> 100 µM (inactive)	> 100 µM (inactive)	> 100 µM (inactive)	> 100 µM (inactive)
COc1ccc(/C=C2\N=C(c3ccccc3)N(NC3=NC(=O)CC(=O)N3)C2=O)cc1	> 100 µM (inactive)	> 100 µM (inactive)	> 100 µM (inactive)	> 100 µM (inactive)	> 100 µM (inactive)	> 100 µM (inactive)	> 100 µM (inactive)	> 100 µM (inactive)	> 100 µM (inactive)	> 100 µM (inactive)	> 100 µM (inactive)	> 100 µM (inactive)	> 100 µM (inactive)	> 100 µM (inactive)	> 100 µM (inactive)	> 100 µM (inactive)	> 100 µM (inactive)	> 100 µM (inactive)	> 100 µM (inactive)	> 100 µM (inactive)
COc1cccc(Nc2nc(N)nc(N)c2N=O)c1	17.4 µM (inactive)	24.4 µM (inactive)	17.8 µM (inactive)	17.1 µM (inactive)	18.5 µM (inactive)	17.3 µM (inactive)	13.6 µM (inactive)	10.8 µM (inactive)	37.8 µM (inactive)	38.6 µM (inactive)	16.9 µM (inactive)	28.8 µM (inactive)	19.8 µM (inactive)	21.3 µM (inactive)	2.12 µM (inactive)	18.7 µM (inactive)	9.4 µM (inactive)	14.7 µM (inactive)	18.4 µM (inactive)	28.6 µM (inactive)
O=C1C=Cc2c(Br)sc(Br)c21	15.2 µM (inactive)	34.2 µM (inactive)	39.8 µM (inactive)	36.1 µM (inactive)	24.7 µM (inactive)	24.7 µM (inactive)	32.3 µM (inactive)	90.4 µM (inactive)	35.6 µM (inactive)	> 100 µM (inactive)	10.3 µM (inactive)	29.8 µM (inactive)	4.78 µM (inactive)	26.6 µM (inactive)	34 µM (inactive)	91.2 µM (inactive)	17.7 µM (inactive)	30.5 µM (inactive)	29.1 µM (inactive)	24.3 µM (inactive)
CC(=O)NCCC1CN(C(=O)/C=C/I)c2ccccc21 (stereo not given)	15.9 µM (inactive)	3.75 µM (inactive)	3.93 µM (inactive)	10.1 µM (inactive)	2.9 µM (inactive)	6.59 µM (inactive)	4.62 µM (inactive)	16.8 µM (inactive)	15.8 µM (inactive)	14.8 µM (inactive)	0.292 µM (active)	14.2 µM (inactive)	1.42 µM (inactive)	7.48 µM (inactive)	2.04 µM (inactive)	7.57 µM (inactive)	2.89 µM (inactive)	9.08 µM (inactive)	4.01 µM (inactive)	5.21 µM (inactive)
CCCCCCCCCCCCCCCCNc1nc(=O)n(C2OC(C)C(O)C2O)cc1F (stereo not given)	16.9 µM (inactive)	24.4 µM (inactive)	21.9 µM (inactive)	18.9 µM (inactive)	23.9 µM (inactive)	15.5 µM (inactive)	17 µM (inactive)	18.5 µM (inactive)	20.6 µM (inactive)	18.8 µM (inactive)	10.6 µM (inactive)	16.4 µM (inactive)	16.8 µM (inactive)	20.5 µM (inactive)	21.1 µM (inactive)	18.5 µM (inactive)	14 µM (inactive)	20 µM (inactive)	18.4 µM (inactive)	20.7 µM (inactive)
CO[C@H]1[C@@H](O)[C@@H](C)O[C@@H](O[C@H]2CC[C@@]3(C)[C@H](CC[C@@H]4[C@@H]3CC[C@]3(C)[C@@H](C5=CC(=O)OC5)CC[C@]43O)C2)[C@@H]1O [ODOROSIDE H]	0.0149 µM (active)	0.0366 µM (active)	0.00467 µM (active)	0.00548 µM (active)	0.00304 µM (active)	0.00304 µM (active)	0.003 µM (active)	0.00601 µM (active)	0.0321 µM (active)	0.0215 µM (active)	0.0111 µM (active)	0.00361 µM (active)	0.00336 µM (active)	0.0109 µM (active)	0.0333 µM (active)	0.00509 µM (active)	0.00454 µM (active)	0.00422 µM (active)	0.00482 µM (active)	0.00394 µM (active)
